pIC50: −log10 of the molar value.
Target: T1, OP2 (κ) (Homo sapiens, UniProt P41145)
T1 construct: expressed in transfected cells; host or cells: CHO-K1 (membrane extracts)
Test: GTPγS assay
Assay type: biochemical
Settings: antagonism
Procedure: Additional receptor agonist/agonist activity assessments were performed using the 8′-OH DHE test compound. Table 12 contains a summary of the cell lines (CHO-K1/HEK293 transfected with relevant human receptor) and the assays performed to detect any agonist or antagonist activity.
Reagents used were the following: Assay buffer (20 mM HEPES, pH 7.4; 100 mM NaCl; 10 mg/mL saponin; 30 mM MgCl2); Membranes (recombinant human receptor membrane extracts were thawed on ice and diluted in assay buffer to give […] (10 μgμL) and kept on ice); GDP (diluted in assay buffer to give 30 μM solution (3 μM final concentration); beads (PVT-WGA (Amersham, RPNQ001), diluted in assay buffer at 25 mg/mL (0.25 mg/10 μL)); GTPγ^35S (Perkin Elmer, NEG030X), diluted in assay buffer to give 0.1 nM (final concentration); and ligand (agonist/antagonist diluted in assay buffer).
Membranes were mixed with GDP (1:1) and incubated for at least 15 minutes on ice. In parallel, GTPγ^35S was mixed with the beads (1:1) just before starting the reaction. […] The plates were then centrifuged for 10 minutes at 2,000 rpm and incubated at RT for 1 hour and counted for 1 min/well with a Perkin Elmer TopCount reader.

T1 sequence (P41145 whole entry): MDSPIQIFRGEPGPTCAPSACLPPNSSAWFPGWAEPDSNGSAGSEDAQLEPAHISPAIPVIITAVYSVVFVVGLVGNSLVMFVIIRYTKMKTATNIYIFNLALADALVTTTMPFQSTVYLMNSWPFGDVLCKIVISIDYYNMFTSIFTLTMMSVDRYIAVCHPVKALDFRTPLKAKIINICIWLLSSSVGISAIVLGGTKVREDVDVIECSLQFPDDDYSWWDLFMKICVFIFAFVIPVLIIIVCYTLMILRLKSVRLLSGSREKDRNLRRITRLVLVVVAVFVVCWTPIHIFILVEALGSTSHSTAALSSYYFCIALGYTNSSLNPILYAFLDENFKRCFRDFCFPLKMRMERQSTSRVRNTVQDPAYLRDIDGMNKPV

`CN1C[C@H](C(=O)N[C@]2(C)O[C@@]3(O)[C@@H]4CCC(O)N4C(=O)[C@H](Cc4ccccc4)N3C2=O)C[C@@H]2c3cccc4[nH]cc(c34)C[C@H]21` (stereo partly shown) [8′-OH DHE, 8′-Hydroxy-Dihydroergotamine] was tested, and the pIC50 was < 6.00.
